Consider 14 compounds from US11339130B1 (Blade Therapeutics, Inc., priority 2016, dated 2022).

Holding throughout (assay type): biochemical
The target of assay [1] is T1, Human Calpain 1/NS1 (Homo sapiens, UniProt P07384).
T1 sequence (P07384 1-714): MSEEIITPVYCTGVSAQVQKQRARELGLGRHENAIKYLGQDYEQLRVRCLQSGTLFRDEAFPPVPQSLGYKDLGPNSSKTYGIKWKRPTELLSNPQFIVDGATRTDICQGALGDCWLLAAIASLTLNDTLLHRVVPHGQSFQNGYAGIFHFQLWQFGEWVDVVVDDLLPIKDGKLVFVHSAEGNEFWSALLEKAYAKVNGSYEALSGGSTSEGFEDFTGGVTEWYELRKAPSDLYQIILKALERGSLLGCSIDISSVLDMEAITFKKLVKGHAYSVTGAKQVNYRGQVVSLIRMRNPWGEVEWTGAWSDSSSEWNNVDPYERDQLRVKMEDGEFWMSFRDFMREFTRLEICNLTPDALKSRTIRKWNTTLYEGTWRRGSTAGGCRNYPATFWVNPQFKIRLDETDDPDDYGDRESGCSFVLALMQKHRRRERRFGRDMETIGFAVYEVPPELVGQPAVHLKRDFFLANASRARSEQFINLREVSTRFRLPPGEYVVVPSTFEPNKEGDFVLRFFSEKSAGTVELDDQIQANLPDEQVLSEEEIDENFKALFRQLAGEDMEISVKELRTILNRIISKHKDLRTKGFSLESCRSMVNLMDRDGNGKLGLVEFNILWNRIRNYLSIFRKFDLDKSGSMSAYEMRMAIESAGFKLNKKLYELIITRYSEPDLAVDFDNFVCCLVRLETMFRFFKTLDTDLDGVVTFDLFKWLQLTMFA
T1 sequence (P04632 1-268 partner): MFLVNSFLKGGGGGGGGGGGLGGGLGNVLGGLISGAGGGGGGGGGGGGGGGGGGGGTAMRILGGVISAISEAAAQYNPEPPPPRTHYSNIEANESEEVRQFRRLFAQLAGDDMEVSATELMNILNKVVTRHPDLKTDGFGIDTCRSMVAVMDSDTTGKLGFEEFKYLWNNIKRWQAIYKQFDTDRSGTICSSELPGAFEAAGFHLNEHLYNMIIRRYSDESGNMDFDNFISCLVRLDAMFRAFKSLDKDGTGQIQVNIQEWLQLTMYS
Kind of assay: Calpain inhibition continuous fluorescence (FRET) assay, Human Calpain 1/NS1. As to conditions: read-out: Human Calpain 1/NS1 IC50. As to the method:
(§1) Calpain 1, 2, and 9 activity and inhibition thereof was assessed by means of a continuous fluorescence assay. The SensoLyte 520 Calpain substrate (Anaspec Inc) was optimized for detecting calpain activity. This substrate contains an internally quenched 5-FAM/QXL™ 520 FRET pair. Calpains 1, 2, and 9 cleave the FRET substrate into two separate fragments resulting in an increase of 5-FAM fluorescence that is proportional to calpain activity
(§2) Assays were typically setup in black 384-well plates using automated liquid handling as follows. Calpain assay base buffer typically contains 50 mM Tris, pH 7.5, 100 mM NaCl and 1 mM DTT. Inhibitors were serially diluted in DMSO and used to setup 2× mixtures with calpains in the aforementioned buffer. After incubation at ambient temperature (25C), the reaction was initiated by adding a 2× mix of the fluorescent peptide substrate and CaCl2) (required for in-situ calpain activation) in the same buffer. Reaction progress curve data were typically collected for 10 min using excitation/emission wavelengths of 490 nm/520 nm on SpectraMax i3× or the FLIPR-Tetra plate readers (Molecular Devices Inc). Reaction rates were calculated from progress curve slopes typically over 1-5 min. Dose response curves (rate vs. log inhibitor concentration) were typically fit to a 4-parameter logistic function to extract IC50 values.

Assay [2] deals with T2, Human Calpain 2/NS1 (Homo sapiens, UniProt P17655).
T2 sequence (P17655 1-700): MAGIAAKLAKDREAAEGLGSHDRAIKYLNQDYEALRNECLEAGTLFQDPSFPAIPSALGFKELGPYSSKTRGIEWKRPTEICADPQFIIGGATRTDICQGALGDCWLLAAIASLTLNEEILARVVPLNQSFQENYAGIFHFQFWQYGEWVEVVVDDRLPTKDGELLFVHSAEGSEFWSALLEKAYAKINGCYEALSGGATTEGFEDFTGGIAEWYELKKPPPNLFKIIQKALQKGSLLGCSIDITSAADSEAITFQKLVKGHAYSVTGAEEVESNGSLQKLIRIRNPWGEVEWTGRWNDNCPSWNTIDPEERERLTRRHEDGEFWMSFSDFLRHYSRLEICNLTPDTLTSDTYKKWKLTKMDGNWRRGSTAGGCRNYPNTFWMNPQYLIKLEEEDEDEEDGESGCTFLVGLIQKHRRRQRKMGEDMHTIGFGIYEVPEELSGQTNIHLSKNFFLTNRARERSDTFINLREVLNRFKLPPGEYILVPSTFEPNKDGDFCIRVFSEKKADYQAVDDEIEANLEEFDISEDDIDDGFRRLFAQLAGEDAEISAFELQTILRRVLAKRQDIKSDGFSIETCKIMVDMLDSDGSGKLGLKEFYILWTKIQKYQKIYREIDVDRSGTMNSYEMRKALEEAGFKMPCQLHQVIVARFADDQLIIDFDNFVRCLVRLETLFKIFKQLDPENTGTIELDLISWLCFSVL
T2 sequence (P04632 1-268 partner): T1 sequence (P04632 1-268 partner)
Kind of assay: Calpain inhibition continuous fluorescence (FRET) assay, Human Calpain 2/NS1. The note with it: read-out: Human Calpain 2/NS1 IC50. On the procedure:
as §1, §2

Assay [3] concerns the target T3, Human Calpain 9/NS1 (Homo sapiens, UniProt O14815).
T3 sequence (O14815 1-690): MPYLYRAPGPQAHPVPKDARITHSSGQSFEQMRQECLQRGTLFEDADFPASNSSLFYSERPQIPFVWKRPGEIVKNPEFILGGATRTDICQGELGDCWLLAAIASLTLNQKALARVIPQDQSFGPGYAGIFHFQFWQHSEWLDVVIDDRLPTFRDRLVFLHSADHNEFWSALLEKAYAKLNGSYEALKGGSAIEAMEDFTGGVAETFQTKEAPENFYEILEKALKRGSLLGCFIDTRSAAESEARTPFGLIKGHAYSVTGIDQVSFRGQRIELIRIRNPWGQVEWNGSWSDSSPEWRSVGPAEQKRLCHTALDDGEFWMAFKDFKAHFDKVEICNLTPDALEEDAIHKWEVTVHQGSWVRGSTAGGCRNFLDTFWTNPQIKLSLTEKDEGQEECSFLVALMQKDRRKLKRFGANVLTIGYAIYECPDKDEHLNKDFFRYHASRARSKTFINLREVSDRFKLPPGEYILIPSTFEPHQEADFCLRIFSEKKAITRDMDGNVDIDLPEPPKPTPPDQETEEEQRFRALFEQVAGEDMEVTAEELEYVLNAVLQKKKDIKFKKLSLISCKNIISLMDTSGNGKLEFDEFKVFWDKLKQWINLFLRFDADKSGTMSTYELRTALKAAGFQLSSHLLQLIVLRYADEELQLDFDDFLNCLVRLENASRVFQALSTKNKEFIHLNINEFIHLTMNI
T3 sequence (P04632 1-268 partner): T1 sequence (P04632 1-268 partner)
Kind of assay: Calpain inhibition continuous fluorescence (FRET) assay, Human Calpain 9/NS1. The note with it: read-out: Human Calpain 9/NS1 IC50. As to the method:
as §1, §2

Where a name gives a salt, the structure may show the parent alone. Read-outs that look alike come from different tables or passages of the source. Some results are limits rather than exact numbers.

In the case of `O=C(NC1CC1)C(=O)[C@H](Cc1ccccc1)NC(=O)c1cncn1-c1cc(-c2ncco2)ccn1` [Compound 77, (S)—N-(4-(cyclopropylamino)-3,4-dioxo-1-phenylbutan-2-yl)-1-(4-(oxazol-2-yl)pyridin-2-yl)-1H-imidazole-5-carboxamide], the IC50 in assay [1] (Column A) is less than 3 µM; in assay [2] (Column B), 3 to 10 µM; in assay [3] (Column C), greater than 10 µM.

Turning to `Cn1cc(C(=O)NC(Cc2ccccc2)C(=O)C(N)=O)c(-c2n[nH]c3ccccc23)n1` (stereo not drawn) [Compound 482, N-(4-amino-3,4-dioxo-1-phenylbutan-2-yl)-3-(1H-indazol-3-yl)-1-methyl-1H-pyrazole-4-carboxamide], the IC50 in assay [1] was 3 to 10 µM; in assay [2] it was 3 to 10 µM; in assay [3], less than 3 µM.

As to `Cc1cc(C(=O)N[C@@H](Cc2ccccc2)C(=O)C(N)=O)n(-c2ccc(-c3ccccc3)nn2)n1` [Compound 233, (S)—N-(4-amino-3,4-dioxo-1-phenylbutan-2-yl)-3-methyl-1-(6-phenylpyridazin-3-yl)-1H-pyrazole-5-carboxamide], the IC50 in assay [1] (Column A) was less than 3 µM; in assay [2] (Column B), less than 3 µM; in assay [3] (Column C), 3 to 10 µM.

With `Cn1nc(-c2ccccc2)c(C(=O)N[C@@H](Cc2ccccc2)C(=O)C(N)=O)c1Cl` [Compound 94, (S)—N-(4-amino-3,4-dioxo-1-phenylbutan-2-yl)-5-chloro-1-methyl-3-phenyl-1H-pyrazole-4-carboxamide], the IC50 in assay [1] (Column A), in assay [2] (Column B) and in assay [3] (Column C) was less than 3 µM in each case.

As for `Cc1cc(C(=O)N[C@@H](Cc2ccccc2)C(=O)C(=O)NCc2ccc(Cl)c(Cl)c2)n(-c2ccccc2)n1` [Compound 149, (S)—N-(4-((3,4-dichlorobenzyl)amino)-3,4-dioxo-1-phenylbutan-2-yl)-3-methyl-1-phenyl-1H-pyrazole-5-carboxamide], the IC50 in assay [1] (Column A), in assay [2] (Column B) and in assay [3] (Column C) was greater than 10 µM throughout.

For the compound `Cc1cc(C(=O)N[C@@H](Cc2ccccc2)C(=O)C(N)=O)n(-c2ncccn2)n1` (single isomer, unassigned) [Compound 36], the IC50 in assay [1] (Column A) is greater than 10 µM; in assay [2] (Column B) it was 3 to 10 µM; in assay [3] (Column C), 3 to 10 µM.

For `Cc1nsc(-c2ccccc2)c1C(=O)N[C@@H](Cc1ccccc1)C(=O)C(N)=O` [Compound 96, (S)—N-(4-amino-3,4-dioxo-1-phenylbutan-2-yl)-3-methyl-5-phenylisothiazole-4-carboxamide], the IC50 in assay [1] (Column A), in assay [2] (Column B) and in assay [3] (Column C) was less than 3 µM throughout.

Consider `Cn1ncc(C(=O)N[C@@H](Cc2ccccc2)C(=O)C(N)=O)c1-c1ccncc1` [Compound 165, (S)—N-(4-amino-3,4-dioxo-1-phenylbutan-2-yl)-1-methyl-5-(pyridin-4-yl)-1H-pyrazole-4-carboxamide], for which the IC50 in assay [1] (Column A), in assay [2] (Column B) and in assay [3] (Column C) was less than 3 µM throughout.

For `Cn1cc(C(=O)N[C@@H](Cc2ccccc2)C(=O)C(N)=O)c(Br)n1` [Compound 196, (S)—N-(4-amino-3,4-dioxo-1-phenylbutan-2-yl)-3-bromo-1-methyl-1H-pyrazole-4-carboxamide], the IC50 is less than 3 µM in assay [1] (Column A), less than 3 µM in assay [2] (Column B) and 3 to 10 µM in assay [3] (Column C).

In the case of `NC(=O)C(=O)[C@H](Cc1ccccc1)NC(=O)c1ccsc1-c1ccccc1` [Compound 270, (S)—N-(4-amino-3,4-dioxo-1-phenylbutan-2-yl)-2-phenylthiophene-3-carboxamide], the IC50 in assay [1] (Column A), in assay [2] (Column B) and in assay [3] (Column C) was less than 3 µM each time.

Take `NC(=O)C(=O)C(Cc1ccccc1)NC(=O)c1cn(C(F)F)nc1-c1ccc2ncccc2c1` (stereo not drawn) [Compound 622, N-(4-amino-3,4-dioxo-1-phenylbutan-2-yl)-1-(difluoromethyl)-3-(quinolin-6-yl)-1H-pyrazole-4-carboxamide hydrochloride]: the IC50 in assay [1], in assay [2] and in assay [3] was less than 3 µM throughout.

For `Cc1cc(C(=O)N[C@@H](Cc2ccccc2)C(=O)C(N)=O)n(-c2cccc3ccccc23)n1` [Compound 38, (S)—N-(4-amino-3,4-dioxo-1-phenylbutan-2-yl)-3-methyl-1-(naphthalen-1-yl)-1H-pyrazole-5-carboxamide], the IC50 in assay [1] (Column A), in assay [2] (Column B) and in assay [3] (Column C) was less than 3 µM in each case.

Take `Cc1cc(C(=O)N[C@@H](Cc2ccccc2)C(=O)C(=O)NC2CC2)n(-c2ccc(C(F)(F)F)cn2)n1` [Compound 122, (S)—N-(4-(cyclopropylamino)-3,4-dioxo-1-phenylbutan-2-yl)-3-methyl-1-(5-(trifluoromethyl)pyridin-2-yl)-1H-pyrazole-5-carboxamide]: the IC50 in assay [1] (Column A), in assay [2] (Column B) and in assay [3] (Column C) was less than 3 µM each time.

Turning to `Cc1nc(-c2ccccc2)c(C(=O)N[C@@H](CC(C)(C)C)C(=O)C(N)=O)o1` [Compound 391, (S)—N-(1-amino-5,5-dimethyl-1,2-dioxohexan-3-yl)-2-methyl-4-phenyloxazole-5-carboxamide], the IC50 in assay [1], in assay [2] and in assay [3] was less than 3 µM each time.
